Laboratory results from ChEMBL document CHEMBL5500415, “Design of a Lead-Like Cysteine-Targeting Covalent Library and the Identification of Hits to Cys55 of Bfl-1” (J Med Chem, 2024).

Assays:
Bcl-2-related protein A1 = target: T1, Bcl-2-related protein A1 (Homo sapiens, UniProt Q16548); experiment: Inhibition of human recombinant N-terminal his tagged Bfl-1 (1 to 151 residues) expressed in Escherichia coli BL21-Gold (DE3) cells using HyLite Fluor 647-labeled BIM peptide as substrate incubated for 120 mins by TR-FRET assay
T1 sequence (Q16548 whole entry): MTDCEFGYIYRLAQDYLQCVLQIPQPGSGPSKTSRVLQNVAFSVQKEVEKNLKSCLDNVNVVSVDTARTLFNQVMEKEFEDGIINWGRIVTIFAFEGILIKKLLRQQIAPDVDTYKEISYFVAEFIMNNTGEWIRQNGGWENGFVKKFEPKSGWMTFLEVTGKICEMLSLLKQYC

[1] = target: T2, Bcl-2-related protein A1 (Homo sapiens) (UniProt Q16548); experiment: Binding affinity to N-terminal His6-tagged recombinant human Bfl-1 (1 to 151 residues) expressed in Escherichia coli BL21-Gold (DE3) cells assessed as Kinact/ki incubated for 10 to 90 mins by MS analysis; conditions: time 10-90 min
T2 sequence (whole entry): T1 sequence (Q16548 whole entry)

[2] = GSH reactivity assessed as half life at pH 7.4 incubated for 24 hrs by LC-UV-MS analysis; type: physicochemical; conditions: glutathione (GSH) solution
[3] = Lipophilicity, logD of compound at pH 7.4 by shake-flask method; type: physicochemical; conditions: buffer

SMILES | IC50 (Bcl-2-related protein A1) [µM] | K [1] [M⁻¹ s⁻¹] | half-life [2] [h] | logD [3]
C=CC(=O)N(Cc1ccc(OC)cc1)c1cccc(Cl)c1 | 23.4 | 7.5 | – | –
C=CC(=O)N(C)[C@@H](c1ccc(Cl)cc1)C1CCOCC1 (racemic) | 90.9 | 0.8 | – | –
C=CC(=O)N1CCC[C@@H]1c1ccccc1 | 480 | 0.7 | 13.7 | 1.7

The next compounds have a lower IC50 (Bcl-2-related protein A1) than those just listed; values first:

IC50 (Bcl-2-related protein A1) [µM] | K [1] [M⁻¹ s⁻¹] | half-life [2] [h] | logD [3] | SMILES
16.8 | 5.5 | – | – | C=CC(=O)N(Cc1ccccc1OCC(N)=O)c1ccc(Cl)cc1
10.4 | 9.5 | – | – | C=CC(=O)N1C[C@@H](Oc2cc(Cl)c(F)cc2C#N)[C@H]1CCC (racemic)
18 | 6.8 | – | – | C=CC(=O)Nc1cc(CN2CCCC2)ccc1-c1ccc(OC)cc1C
